According to paper PMC9322451 (Clinical Pharmacology in Drug Development, 2022):

What was measured:
[1] = system: CYP1A2; design: method as in unpublished data; conditions: ref unpublished data; cited from earlier work
[2] = design: method as in PMID 29484635; conditions: single 35‐mg dose following a high‐fat breakfast; cited from earlier work
[3] = system: CYP3A4/5; design: method as in unpublished data; conditions: ref unpublished data, read-out: half maximal inhibitory concentration; cited from earlier work
[4] = Phase 1 part A: safety (TEAEs); assay type: in vivo, human; conditions: for Any TEAE / Headache (TEAE) / Nasopharyngitis (TEAE) / SAE / Severe TEAE / Skin exfoliation (TEAE) / TEAE leading to death / TEAE leading to discontinuation: Part A
Procedure: The study was conducted sequentially in 2 parts. […] Eligible participants were admitted to the clinical unit for single‐dose evaluation from days −2 to 2 and from days 29 to 31 for steady‐state PK and safety evaluation. Participants self‐administered daily doses after an overnight fast of at least 10 hours on days 4 to 30, with outpatient visits on days 3, 4, 7, 14, 21, 32, 33, and 61 (Figure S1). […] Dosing of the 40‐mg group commenced when the safety of 25 mg was deemed acceptable by both the investigator and the sponsor's (Insmed Incorporated, Bridgewater, New Jersey) medical monitor.
Safety was assessed from the signing of informed consent until the end of study and included the following variables: treatment‐emergent adverse events (TEAEs), serious adverse events (SAEs), clinical laboratory tests (clinical chemistry, hematology, coagulation [part A only], and urinalysis), vital signs, 12‐lead ECG, primary Holter monitoring, and physical examinations (including evaluation of teeth and gingiva, and evaluation of palms and soles). Because of the mechanism of action of brensocatib, findings of hyperkeratosis, periodontitis/gingivitis, and other infections were reported as adverse events of special interest (AESIs). Renal function (part A only) was monitored by measuring serum creatinine and blood urea nitrogen, performing routine urinalysis, and measuring neutrophil gelatinase–associated lipocalin and cystatin.
Adverse events (AEs) observed before the first dosing were recorded as medical history. All medical history and AEs were coded using the Medical Dictionary for Regulatory Activities (version 21.1 or higher). A TEAE was defined as an AE that began or worsened in severity after at least 1 dose of study drug was administered. All AEs experienced by a participant were monitored until the event had resolved, any abnormal laboratory values returned to baseline or stabilized, a satisfactory explanation for the changes was identified, or the participant was lost to follow‐up.

[5] = system: CYP3A4; design: method as in unpublished data; conditions: ref unpublished data; cited from earlier work
[6] = design: method as in unpublished data; conditions: healthy adults; ref unpublished data; cited from earlier work
[7] = system: CYP2A6; design: method as in unpublished data; conditions: ref unpublished data; cited from earlier work
[8] = system: neutrophil elastase; conditions: 10 and 25 mg, patients with non–cystic fibrosis bronchiectasis, WILLOW study; cited from earlier work
[9] = system: CYP2C19; design: method as in unpublished data; conditions: ref unpublished data; cited from earlier work
[10] = system: CYP1A2; design: method as in unpublished data; conditions: ref unpublished data; cited from earlier work; remark: listed apart in the source

## Cn1c(=O)oc2ccc(-c3ccc(C[C@@H](C#N)NC(=O)[C@@H]4CNCCCO4)cc3)cc21 [Brensocatib]
[1]
  CYP inhibition: no effect
[2]
  Tmax: 3.3 h
  decrease of AUC with food: 9%
  decrease of Cmax with food: 36%
[3]
  IC50: > 30 µM
[4]; 10 mg, Japanese (n=8)
  Any TEAE: 3 (37.5) n (%)
  Headache (TEAE): 0 n (%)
  Nasopharyngitis (TEAE): 0 n (%)
  SAE: 0 n (%)
  Severe TEAE: 0 n (%)
  Skin exfoliation (TEAE): 1 (12.5) n (%)
  TEAE leading to death: 0 n (%)
  TEAE leading to discontinuation: 0 n (%)
[4]; 10 mg, White (n=8)
  Any TEAE: 6 (75.0) n (%)
  Headache (TEAE): 1 (12.5) n (%)
  Nasopharyngitis (TEAE): 2 (25.0) n (%)
  SAE: 0 n (%)
  Severe TEAE: 0 n (%)
  Skin exfoliation (TEAE): 0 n (%)
  TEAE leading to death: 0 n (%)
  TEAE leading to discontinuation: 0 n (%)
[4]; 25 mg, Japanese (n=9)
  Any TEAE: 5 (55.6) n (%)
  Headache (TEAE): 3 (33.3) n (%)
  Nasopharyngitis (TEAE): 0 n (%)
  SAE: 0 n (%)
  Severe TEAE: 0 n (%)
  Skin exfoliation (TEAE): 2 (22.2) n (%)
  TEAE leading to death: 0 n (%)
  TEAE leading to discontinuation: 0 n (%)
[4]; 25 mg, White (n=8)
  Any TEAE: 5 (62.5) n (%)
  Headache (TEAE): 1 (12.5) n (%)
  Nasopharyngitis (TEAE): 0 n (%)
  SAE: 0 n (%)
  Severe TEAE: 0 n (%)
  Skin exfoliation (TEAE): 1 (12.5) n (%)
  TEAE leading to death: 0 n (%)
  TEAE leading to discontinuation: 0 n (%)
[4]; 40 mg, Japanese (n=8)
  Any TEAE: 3 (37.5) n (%)
  Headache (TEAE): 0 n (%)
  Nasopharyngitis (TEAE): 0 n (%)
  SAE: 0 n (%)
  Severe TEAE: 0 n (%)
  Skin exfoliation (TEAE): 0 n (%)
  TEAE leading to death: 0 n (%)
  TEAE leading to discontinuation: 1 (12.5) n (%)
[4]; 40 mg, White (n=8)
  Any TEAE: 5 (62.5) n (%)
  Headache (TEAE): 2 (25.0) n (%)
  Nasopharyngitis (TEAE): 0 n (%)
  SAE: 0 n (%)
  Severe TEAE: 0 n (%)
  Skin exfoliation (TEAE): 1 (12.5) n (%)
  TEAE leading to death: 0 n (%)
  TEAE leading to discontinuation: 0 n (%)
[4]; pooled brensocatib (N=49)
  Any TEAE: 27 (55.1) n (%)
  Headache (TEAE): 7 (14.3) n (%)
  Nasopharyngitis (TEAE): 2 (4.1) n (%)
  SAE: 0 n (%)
  Severe TEAE: 0 n (%)
  Skin exfoliation (TEAE): 5 (10.2) n (%)
  TEAE leading to death: 0 n (%)
  TEAE leading to discontinuation: 1 (2.0) n (%)
[4]; part A
  Renal toxicity assessments: no signs of acute kidney injury
  participants treated with brensocatib who experienced ≥1 TEAE: 55.1%
[4]; parts A and B
  AESIs (hyperkeratosis, periodontitis/gingivitis, other infections): None of these AESIs were evident
  SAEs, severe TEAEs, deaths during the study: No SAEs, severe TEAEs, or deaths occurred
[4]; single and multiple administration 10, 25, and 40 mg for 28 days, healthy Japanese and White participants
  tolerability: well tolerated
[5]
  CYP induction (significant inducer or not): not a significant
[6]
  excreted in urine as unchanged: ≈ 20%
[7]
  CYP inhibition: no effect
[8]
  effect on neutrophil elastase and clinical outcomes: reduced neutrophil elastase and improved clinical outcomes
[9]
  CYP inhibition: no effect
[10]
  CYP induction (significant inducer or not): not a significant
